Where two headings read alike, the source gives them in different places.
Tests used:
[1] = test system: MCF-7 human breast cancer subcutaneous xenograft model; assay: Tumor inhibition in subcutaneous xenograft model; type: in vivo, female BALB/c nude mice; details: the compound of Formula (A) 25 mg/kg p.o. QD, Fulvestrant 5 mg/mouse s.c. QW; for Body weight Post 28 Days of Treatment: mean ± standard error; for Body weight Post 28 Days of Treatment / Tumor Volume 28 Days After Administration: n=12, x 4 weeks; for Tumor Volume 28 Days After Administration: tumor volume at grouping 204 ± 6, P <0.001 vs control; for T/C: relative tumor volume increase ratio; for T/C / TGI: day 28; for TGI: tumor growth inhibition rate
Source text: The purpose of this study is to evaluate the therapeutic efficacy of the compound of Formula (A) in combination with fulvestrant in the MCF-7 human breast cancer subcutaneous xenograft model in female BALB/c nude mice.
BALB/c nude mice, 6-8 weeks old, female, weighing 18-20 g, were purchased from Beijing Anikeeper Biotech Co., Ltd.. The feeding environment was SPF-grade, the temperature is (23±3)°C and the humidity is 40-70%.
Solvent for the compound of Formula (A): 1,2-Propanediol (PG) : 50% Solutol HS-15 : 0.5% Hydroxypropyl Methylcellulose (HPMC) = 2 : 1 : 7.
Compound preparation methods
MCF-7 tumor cells were cultured in DMEM medium containing inactivated 15% fetal bovine serum, 100 U/mL penicillin, and 100 µg/mL streptomycin in an incubator at 37°C with 5% CO2. Tumor cells in the logarithmic growth phase were used for in vivo tumor inoculation.
One day before the inoculation of MCF-7 tumor cells, the mice were subcutaneously implanted with an estrogen tablet (0.5 mg, 90-day release period) on the left side. MCF-7 tumor cells resuspended in serum-free DMEM medium were inoculated subcutaneously into the right costal region of the experimental animals at a density of 1.5 × 10^7 cells (0.2 mL + Matrigel), with a total of 72 animals inoculated. When the tumors grew to approximately 204 mm^3, 48 animals with relatively uniform tumor volumes were selected for grouping and administration, divided into 4 groups, and administered according to the dosing schedule. Table 8. Compounds administration schedule
Tumor volume was measured twice a week using a vernier caliper. The long diameter and short diameter of the tumor were measured, and the volume was calculated using the formula: Volume = 0.5×long diameter×short diameter^2.
While measuring the tumor volume, the body weight of the mice was weighed. The relationship between the changes in the mice's body weight and the administration time was recorded. Meanwhile, the survival status and health conditions of the mice were observed, such as their general states including activity and food intake during the administration period.
Tumor Growth Inhibition Rate(TGI,%) = (1−T/C) × 100 [formula]
Statistical analysis of tumor volume between groups was performed using the statistical software SPSS 16.0 and One-Way ANOVA test. A p-value < 0.05 was considered statistically significant.

[2] = Plasma pharmacokinetics in the xenograft mice on day 28 of treatment; type: in vivo, female BALB/c nude mice; details: for AUC(0-inf) / AUC(0-t) / Cmax / Tmax / half-life / MRT inf: female, BALB/c nude; for MRT inf: read-out: MRTInf_obs
Source text: The purpose of this study was to evaluate the therapeutic efficacy of the compound of Formula (A) in combination with fulvestrant in the MCF-7 human breast cancer subcutaneous xenograft model in female BALB/c nude mice.
On the 28th day of treatment for the mice in Experiment 2, animal plasma was continuously collected for PK detection, with a total of 112 plasma samples and 16 tumor samples. PK sample sampling protocol

[3] = po, analyte: the compound of Formula (A) in plasma, 25 mg/kg p.o. alone (G2) or + Fulvestrant 5 mg/mouse (G4)
[4] = sc, analyte: fulvestrant in plasma, 5 mg/mouse s.c. alone (G3) or + the compound of Formula (A) 25 mg/kg (G4)

Row | AUC%Extrap_obs ([2]; analyte: fulvestrant in plasma, 5 mg/mouse s.c. alone (G3) or + the compound of Formula (A) 25 mg/kg (G4)) | AUC(0-inf) [2, 4] | AUC(0-t) [2, 4] | Cmax [2, 4] | Tmax [2, 4] | half-life [2, 4] | MRT inf [2, 4] | Compound | Body weight Post 28 Days of Treatment [1] | Tumor Volume 28 Days After Administration [1] | T/C [1] | TGI [1] | AUC%Extrap_obs ([2]; analyte: the compound of Formula (A) in plasma, 25 mg/kg p.o. alone (G2) or + Fulvestrant 5 mg/mouse (G4)) | AUC(0-inf) [2, 3] | AUC(0-t) [2, 3] | Cmax [2, 3] | Tmax [2, 3] | half-life [2, 3] | MRT inf [2, 3]
1 |  |  |  |  |  |  |  | CC(C)NC[C@@H](C(=O)N1CCN(c2ncnc3c2[C@H](C)CC(=O)N3)[C@H]2C[C@H]21)c1ccc(Cl)cc1 [The compound of Formula (A), (R)-4-((1S,6R)-5-((S)-2-(4-chlorophenyl)-3-(isopropylamino)propanoyl)-2,5-diazabicyclo[4.1.0]heptan-2-yl)-5-methyl-5,8-dihydropyrido[2,3-d]pyrimidin-7(6H)-one] | 23.8 ± 0.5 g | 684 ± 65 mm^3 | 58.4% | 41.6% | 1.48% | 18800 ng·h/mL | 18500 ng·h/mL | 1340 ng/mL | 2.75 h | 7.93 h | 10.5 h
2 | 12.6% | 6610 ng·h/mL | 5780 ng·h/mL | 268 ng/mL | 0.375 h | 23.6 h | 37.7 h | C[C@]12CC[C@@H]3c4ccc(O)cc4C[C@@H](CCCCCCCCC[S+]([O-])CCCC(F)(F)C(F)(F)F)[C@H]3[C@@H]1CC[C@@H]2O (stereo partly shown) [Fulvestrant, reference compound] | 25.9 ± 0.3 g | 546 ± 54 mm^3 | 46.9% | 53.1% |  |  |  |  |  |  | 

From EP4729061A1, “USE OF AKT INHIBITOR IN PREPARATION OF DRUG FOR PREVENTING OR TREATING BREAST CANCER” (Nanjing Chia Tai Tianqing Pharmaceutical Co., Ltd., priority 2023, dated 2024)
